How the values were obtained:
[1] = target: C-X-C chemokine receptor type 4 (Homo sapiens, UniProt P61073); assay: Binding affinity to CXCR4 (unknown origin) expressed in CHO cells incubated for 40 mins by competitive binding assay method
[2] = target: Stromal cell-derived factor 1 (Homo sapiens, UniProt P48061); assay: Inhibition of SDF-1 alpha induced cell migration in human SUP-T1 cells pre-incubated for 30 mins followed by SDF-1 alpha addition measured after 3 hrs by cell Titer-96 reagent based analysis
Chain of Stromal cell-derived factor 1 (P48061 whole entry): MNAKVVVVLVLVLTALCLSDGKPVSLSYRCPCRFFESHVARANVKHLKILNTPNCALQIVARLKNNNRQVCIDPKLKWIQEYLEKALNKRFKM

Chain of C-X-C chemokine receptor type 4 (P61073 whole entry): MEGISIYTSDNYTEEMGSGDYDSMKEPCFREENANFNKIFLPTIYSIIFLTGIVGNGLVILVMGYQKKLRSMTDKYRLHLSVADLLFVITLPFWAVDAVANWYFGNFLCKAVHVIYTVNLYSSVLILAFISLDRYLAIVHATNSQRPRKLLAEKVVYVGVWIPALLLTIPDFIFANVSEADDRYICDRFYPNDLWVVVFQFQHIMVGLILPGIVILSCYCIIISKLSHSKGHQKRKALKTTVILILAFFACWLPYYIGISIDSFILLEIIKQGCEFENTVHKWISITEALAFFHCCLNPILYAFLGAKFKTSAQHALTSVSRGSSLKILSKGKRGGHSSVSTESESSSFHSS

Row | SMILES | IC50 [1] | IC50 [2]
1 | Cc1ccnc2c(N)cc(Cc3cnc(N)nc3N)cc12 | 68 nM | 
2 | COc1cc(Cc2cnc(N)nc2N)cc2c(C)cc(C)nc12 | 122 nM | 
3 | Nc1ncc(Cc2ccc3ncccc3c2)c(N)n1 | 119 nM | 

More lines, now with the values ahead:

Row | IC50 [1] | IC50 [2] | SMILES
4 | 68 nM |  | COc1cc(Cc2cnc(N)nc2N)cc2c1N(CCOC(C)=O)CCC2C (stereo not given)
5 |  | 621 nM | CCOC(=O)C1CNc2c(OC)cc(Cc3cnc(N)nc3N)c(OC)c2C1 (stereo not given)

— BindingDB's records for PubMed 32492596 (Tsinghua University, 2020)
